Like-named read-outs stand apart in the source and are kept apart here.
Experiments:
Aedes aegypti = assay: In vitro ingestion activity against adult mosquitoes (artificial feeding, bovine blood); conditions: read-out: Mortality % R1 + R2
Protocol: Aedes aegypti (Louisiana Biologicals Inc., New Orleans, La.) eggs were allowed to hatch, close, and age between 3-5 days in an environmental chamber at 26° C., 80% humidity with light/dark cycles.
For mosquito ingestion tests, serial dilutions of the compound stock were performed using DMSO to achieve the desired range for EC50 and EC90 determination. An aliquot of each compound dilution was added to organic bovine blood with a final DMSO concentration of 0.5% and placed in a temperature-controlled artificial feeding container.
(§1) Compounds tested were: the C1 racemate, C1 (R) enantiomer, and the C1 (S) enantiomer. For Trial 3, the C1 (R) enantiomer and the C1 (S) enantiomer were further chiral purified to achieve >99% purity.
For both contact and ingestion assays, five female Aedes aegypti adults were added to each vial or cage. The test vials for contact assays were held in an environmental chamber at 24° C., 80% humidity with light/dark cycles (12 hours each). The cages for mosquito ingestion assays were held in a temperature-controlled artificial feeding apparatus to allow continual access to organic bovine blood containing the desired concentration of compound. Fresh aliquots of compound-spiked bovine blood were provided daily for the duration of the study.
Assessment of mortality/knockdown was performed at various time points between 30 minutes and 24 hours post infestation. Mosquitoes showing no movement or mosquitoes that were knocked down were noted as dead. Results from trial 1 and trial 2 contact assays are shown in Tables 12 and 13, respectively and the results from trial 3 mosquito ingestion assay is shown in table 14.
For the mosquito contact and ingestion assays, each replicate contained 5 mosquitoes. For ease of calculation, the two replicates were added to equal a total of 10 mosquitoes.

Ixodes scapularis = assay: In vitro contact activity against adult ticks (coated vial), I. scapularis; conditions: for mortality at 0.006 µM: Trial 1, dose 0.006 μM; for mortality at 0.024 µM: Trial 1, dose 0.024 μM; for mortality at 0.098 µM: Trial 1, dose 0.098 μM; for mortality at 0.39 µM: Trial 1, dose 0.39 μM; for mortality at 1.56 µM: Trial 1, dose 1.56 μM; for mortality at 6.25 µM: Trial 1, dose 6.25 μM; for mortality at 25 µM: Trial 1, dose 25 μM; for mortality at 100 µM: Trial 1, dose 100 μM
Protocol: Rhipicephalus sanguineus, Dermacentor variabilis, Amblyomma americanum, (Ecto Services, Inc., Henderson, N.C.) and Ixodes scapularis (Oklahoma State University, Stillwater, Okla.) aged between 2-4 weeks post molt were held in an environmental chamber at 24° C., 80% humidity with 12-hour light/dark cycles.
For tick assays, vial caps were pre-drilled with a single hole in the center of each cap to allow air exchange. A filter paper (Whatman Grade 540 2.1 cm) was placed in the lid of each vial. An aliquot from each compound stock was added to an acetone/triton solution to achieve the desired top doses for the study. Serial dilutions were conducted from the top dose (i.e. 100 ppm) to achieve the desired titration range for EC50 and EC90 determination. For R. sanguineus, D. variabilis, and A. americanum, the final DMSO concentration in each test vial was 0.5%. For I. scapularis, compounds were solubilized directly in an acetone/triton solution due to I. scapularis' sensitivity to DMSO. A 459 μL aliquot of each compound formulation was transferred to a vial containing a Whatman Grade 540 2.1 cm filter paper. Vials were immediately placed on an unheated roller unit to allow for an even coating of the vial walls. After vials were coated, 41 μL of each compound formulation was added to the filter paper embedded in each vial cap. Each cap was allowed to dry. The vials were loosely capped and allowed to dry for a minimum of four hours in a chemical fume hood.
as §1
Ten adult ticks were added to each vial and held at 24° C., 80% humidity with 12-hour light/dark cycles. Adult ticks were assessed for percent mortality at various time points between 2 hours and 48 hours post infestation. Ticks were stimulated on a heated roller unit and evaluated. Ticks showing no movement, or very slow and uncoordinated movement were noted as dead.

O=C(CC(F)(F)F)N1CC2(C1)OCc1cc(C3=NS[C@](c4cc(Cl)c(F)c(Cl)c4)(C(F)(F)F)C3)ccc12 [C1 (R) enantiomer, (R)-1-[6-[5-(3,5-dichloro-4-fluoro-phenyl)-5-(trifluoromethyl)-4H-isothiazol-3-yl]spiro[1H-isobenzofuran-3,3′-azetidine]-1′-yl]-3,3,3-trifluoro-propan-1-one]
20%: mortality at 100 µM (Ixodes scapularis; 24 h, Rep1)
11.1%: mortality at 3.125 ppm (Aedes aegypti)
75%: mortality at 0.78 ppm (Aedes aegypti; 24 h)
40%: mortality at 0.049 ppm (Aedes aegypti; 24 h)
100%: mortality at 3.125 ppm (Aedes aegypti; 24 h) | mortality at 12.5 ppm (Aedes aegypti; 24 h) | mortality at 50 ppm (Aedes aegypti; 24 h) | mortality at 12.5 ppm (Aedes aegypti)
88.9%: mortality at 50 ppm (Aedes aegypti)
50%: mortality at 100 µM (Ixodes scapularis; 48 h, Rep1)
30%: mortality at 0.2 ppm (Aedes aegypti; 24 h) | mortality at 25 µM (Ixodes scapularis; 48 h, Rep2) | mortality at 100 µM (Ixodes scapularis; 48 h, Rep2)
0%: mortality at 0.78 ppm (Aedes aegypti) | mortality at 0.006 µM (Ixodes scapularis; 2 h, Rep1) | mortality at 0.006 µM (Ixodes scapularis; 2 h, Rep2) | mortality at 0.024 µM (Ixodes scapularis; 2 h, Rep1) | mortality at 0.024 µM (Ixodes scapularis; 2 h, Rep2) | mortality at 0.098 µM (Ixodes scapularis; 2 h, Rep1) | mortality at 0.098 µM (Ixodes scapularis; 2 h, Rep2) | mortality at 0.39 µM (Ixodes scapularis; 2 h, Rep1) | mortality at 0.39 µM (Ixodes scapularis; 2 h, Rep2) | mortality at 1.56 µM (Ixodes scapularis; 2 h, Rep1) | mortality at 1.56 µM (Ixodes scapularis; 2 h, Rep2) | mortality at 6.25 µM (Ixodes scapularis; 2 h, Rep1) | mortality at 6.25 µM (Ixodes scapularis; 2 h, Rep2) | mortality at 25 µM (Ixodes scapularis; 2 h, Rep1) | mortality at 25 µM (Ixodes scapularis; 2 h, Rep2) | mortality at 100 µM (Ixodes scapularis; 2 h, Rep1) | mortality at 100 µM (Ixodes scapularis; 2 h, Rep2) | mortality at 0.006 µM (Ixodes scapularis; 6 h, Rep1) | mortality at 0.006 µM (Ixodes scapularis; 6 h, Rep2) | mortality at 0.024 µM (Ixodes scapularis; 6 h, Rep1) | mortality at 0.024 µM (Ixodes scapularis; 6 h, Rep2) | mortality at 0.098 µM (Ixodes scapularis; 6 h, Rep1) | mortality at 0.098 µM (Ixodes scapularis; 6 h, Rep2) | mortality at 0.39 µM (Ixodes scapularis; 6 h, Rep1) | mortality at 0.39 µM (Ixodes scapularis; 6 h, Rep2) | mortality at 1.56 µM (Ixodes scapularis; 6 h, Rep1) | mortality at 1.56 µM (Ixodes scapularis; 6 h, Rep2) | mortality at 6.25 µM (Ixodes scapularis; 6 h, Rep1) | mortality at 6.25 µM (Ixodes scapularis; 6 h, Rep2) | mortality at 25 µM (Ixodes scapularis; 6 h, Rep1) | mortality at 25 µM (Ixodes scapularis; 6 h, Rep2) | mortality at 100 µM (Ixodes scapularis; 6 h, Rep1) | mortality at 100 µM (Ixodes scapularis; 6 h, Rep2) | mortality at 0.006 µM (Ixodes scapularis; 12 h, Rep1) | mortality at 0.006 µM (Ixodes scapularis; 12 h, Rep2) | mortality at 0.024 µM (Ixodes scapularis; 12 h, Rep1) | mortality at 0.024 µM (Ixodes scapularis; 12 h, Rep2) | mortality at 0.098 µM (Ixodes scapularis; 12 h, Rep1) | mortality at 0.098 µM (Ixodes scapularis; 12 h, Rep2) | mortality at 0.39 µM (Ixodes scapularis; 12 h, Rep1) | mortality at 0.39 µM (Ixodes scapularis; 12 h, Rep2) | mortality at 1.56 µM (Ixodes scapularis; 12 h, Rep1) | mortality at 1.56 µM (Ixodes scapularis; 12 h, Rep2) | mortality at 6.25 µM (Ixodes scapularis; 12 h, Rep1) | mortality at 6.25 µM (Ixodes scapularis; 12 h, Rep2) | mortality at 25 µM (Ixodes scapularis; 12 h, Rep1) | mortality at 25 µM (Ixodes scapularis; 12 h, Rep2) | mortality at 100 µM (Ixodes scapularis; 12 h, Rep1) | mortality at 100 µM (Ixodes scapularis; 12 h, Rep2) | mortality at 0.006 µM (Ixodes scapularis; 24 h, Rep1) | mortality at 0.006 µM (Ixodes scapularis; 24 h, Rep2) | mortality at 0.024 µM (Ixodes scapularis; 24 h, Rep1) | mortality at 0.024 µM (Ixodes scapularis; 24 h, Rep2) | mortality at 0.098 µM (Ixodes scapularis; 24 h, Rep1) | mortality at 0.098 µM (Ixodes scapularis; 24 h, Rep2) | mortality at 0.39 µM (Ixodes scapularis; 24 h, Rep1) | mortality at 0.39 µM (Ixodes scapularis; 24 h, Rep2) | mortality at 1.56 µM (Ixodes scapularis; 24 h, Rep1) | mortality at 1.56 µM (Ixodes scapularis; 24 h, Rep2) | mortality at 6.25 µM (Ixodes scapularis; 24 h, Rep1) | mortality at 6.25 µM (Ixodes scapularis; 24 h, Rep2) | mortality at 25 µM (Ixodes scapularis; 24 h, Rep1) | mortality at 25 µM (Ixodes scapularis; 24 h, Rep2) | mortality at 100 µM (Ixodes scapularis; 24 h, Rep2) | mortality at 0.006 µM (Ixodes scapularis; 48 h, Rep1) | mortality at 0.006 µM (Ixodes scapularis; 48 h, Rep2) | mortality at 0.024 µM (Ixodes scapularis; 48 h, Rep1) | mortality at 0.024 µM (Ixodes scapularis; 48 h, Rep2) | mortality at 0.098 µM (Ixodes scapularis; 48 h, Rep1) | mortality at 0.098 µM (Ixodes scapularis; 48 h, Rep2) | mortality at 0.39 µM (Ixodes scapularis; 48 h, Rep1) | mortality at 0.39 µM (Ixodes scapularis; 48 h, Rep2) | mortality at 1.56 µM (Ixodes scapularis; 48 h, Rep1) | mortality at 1.56 µM (Ixodes scapularis; 48 h, Rep2) | mortality at 6.25 µM (Ixodes scapularis; 48 h, Rep1) | mortality at 6.25 µM (Ixodes scapularis; 48 h, Rep2)
10%: mortality at 0.049 ppm (Aedes aegypti) | mortality at 0.2 ppm (Aedes aegypti) | mortality at 25 µM (Ixodes scapularis; 48 h, Rep1)
